Details: Gas, Hot wire method

O=C=O [carbon dioxide]
Details | thermal conductivity [W/m/K]
298.89 K, 6100 kPa | 0.03312
299.02 K, 5760 kPa | 0.02896
299.19 K, 5400 kPa | 0.02633
299.31 K, 5035 kPa | 0.02441
299.5 K, 4555 kPa | 0.02268
299.6 K, 3980 kPa | 0.02109
299.73 K, 3285 kPa | 0.01968
299.85 K, 2555 kPa | 0.01861
300.06 K, 1702 kPa | 0.01777
300.37 K, 714 kPa | 0.01712
302.67 K, 6635 kPa | 0.037
302.77 K, 6400 kPa | 0.03309
302.8 K, 6025 kPa | 0.02905
302.86 K, 5675 kPa | 0.02694
302.92 K, 5290 kPa | 0.02471
302.97 K, 4870 kPa | 0.02339
303.08 K, 4340 kPa | 0.02178
303.22 K, 3765 kPa | 0.02053
303.51 K, 3160 kPa | 0.01961
303.81 K, 2415 kPa | 0.01872
303.99 K, 1612 kPa | 0.01795
304.21 K, 724 kPa | 0.01741
324.87 K, 7960 kPa | 0.03214
324.9 K, 7750 kPa | 0.03118
324.92 K, 7440 kPa | 0.02954
324.95 K, 5960 kPa | 0.02501
325.01 K, 6900 kPa | 0.02771
325.04 K, 6760 kPa | 0.02716
325.1 K, 5575 kPa | 0.02434
325.12 K, 6360 kPa | 0.02611
325.28 K, 5060 kPa | 0.02323
325.42 K, 4605 kPa | 0.02254
325.48 K, 4040 kPa | 0.02182
325.64 K, 3500 kPa | 0.02126
325.81 K, 2880 kPa | 0.02052
325.93 K, 2218 kPa | 0.02003
326.03 K, 1514 kPa | 0.01958
326.17 K, 684 kPa | 0.01921
326.26 K, 497 kPa | 0.0191
350.83 K, 9985 kPa | 0.03324
350.89 K, 8840 kPa | 0.03029
350.96 K, 7540 kPa | 0.02768
351.12 K, 6040 kPa | 0.02551
351.44 K, 4275 kPa | 0.02351
351.82 K, 2214 kPa | 0.02197
351.87 K, 1820 kPa | 0.02181
351.91 K, 1420 kPa | 0.02153
352.1 K, 994 kPa | 0.02141
352.23 K, 572 kPa | 0.02136
375.68 K, 14930 kPa | 0.04175
375.71 K, 13880 kPa | 0.03888
375.75 K, 12560 kPa | 0.03615
375.8 K, 11100 kPa | 0.03322
375.85 K, 9640 kPa | 0.03079
375.91 K, 8060 kPa | 0.02887
376.01 K, 6260 kPa | 0.02673
376.11 K, 4240 kPa | 0.02504
376.28 K, 2004 kPa | 0.02377
376.51 K, 1015 kPa | 0.02346
400.85 K, 15010 kPa | 0.03843
400.93 K, 13550 kPa | 0.03623
400.98 K, 11950 kPa | 0.03389
401.03 K, 10340 kPa | 0.03194
401.15 K, 8495 kPa | 0.03004
401.3 K, 6660 kPa | 0.0285
401.42 K, 4600 kPa | 0.02712
401.6 K, 2382 kPa | 0.02597
401.66 K, 1690 kPa | 0.02584
401.74 K, 975 kPa | 0.02566
427.12 K, 12000 kPa | 0.03429
427.23 K, 9898 kPa | 0.0325
427.38 K, 8240 kPa | 0.03127
427.51 K, 6160 kPa | 0.02966
427.67 K, 3970 kPa | 0.02879
427.7 K, 3020 kPa | 0.02833
427.95 K, 2050 kPa | 0.02812
428.05 K, 1040 kPa | 0.02797
